# Tested on: MV-4-11 cells
# Test: Gene expression microarray analysis (Affymetrix PrimeView) and GSEA
# Assay type: cell-based, human
# Parameters: RFU PODN (11730768_x_at) / Fold change /veh PODN (11730768_x_at) / RFU LINC00158 (11744669_a_at) / Fold change /veh LINC00158 (11744669_a_at) / RFU DUSP10 (11751237_a_at) / Fold change /veh DUSP10 (11751237_a_at) / RFU ID3 (11757404_x_at) / Fold change /veh ID3 (11757404_x_at) / RFU PLEKHG5 (11737974_s_at) / Fold change /veh PLEKHG5 (11737974_s_at) / RFU LRRC4B (11730491_at) / Fold change /veh LRRC4B (11730491_at) / RFU GIMAP4 (11747438_a_at) / Fold change /veh GIMAP4 (11747438_a_at) / RFU KRT8 (11758183_x_at) / Fold change /veh KRT8 (11758183_x_at) / RFU CNN1 (11734310_a_at) / Fold change /veh CNN1 (11734310_a_at) / RFU VPS37D (11726825_at) / Fold change /veh VPS37D (11726825_at) / RFU C10orf10 (11716522_x_at) / Fold change /veh C10orf10 (11716522_x_at) / RFU KIR2DL2 /// KIR2DL4 /// KIR2DL5A /// KIR2DL5B /// KIR2DS1 /// KIR2DS2 /// KIR2DS3 /// KIR2DS4 /// KIR3DL3 /// KIR3DL3 /// KIR3DS1 (11738374_at) / Fold change /veh KIR2DL2 /// KIR2DL4 /// KIR2DL5A /// KIR2DL5B /// KIR2DS1 /// KIR2DS2 /// KIR2DS3 /// KIR2DS4 /// KIR3DL3 /// KIR3DL3 /// KIR3DS1 (11738374_at) / RFU C1QL1 (11718748_at) / Fold change /veh C1QL1 (11718748_at) / RFU TMPRSS4 (11747572_a_at) / Fold change /veh TMPRSS4 (11747572_a_at) / RFU HAMP (11756126_x_at) / Fold change /veh HAMP (11756126_x_at) / RFU RNFT2 (11725882_a_at) / Fold change /veh RNFT2 (11725882_a_at) / RFU NR4A2 (11747474_a_at) / Fold change /veh NR4A2 (11747474_a_at) / RFU ABCC12 (11746883_a_at) / Fold change /veh ABCC12 (11746883_a_at) / RFU TMEM136 (11760407_x_at) / Fold change /veh TMEM136 (11760407_x_at) / RFU CLDN22 /// WWC2 (11732394_at) / Fold change /veh CLDN22 /// WWC2 (11732394_at) / RFU HLA-DPB1 (11760878_x_at) / Fold change /veh HLA-DPB1 (11760878_x_at) / RFU SPINT1 (11716480_a_at) / Fold change /veh SPINT1 (11716480_a_at) / RFU GAP43 (11754022_s_at) / Fold change /veh GAP43 (11754022_s_at) / RFU A4GNT (11735810_at) / Fold change /veh A4GNT (11735810_at) / RFU PRB3 (11715151_x_at) / Fold change /veh PRB3 (11715151_x_at) / RFU TUBB4B (11761932_at) / Fold change /veh TUBB4B (11761932_at) / RFU CAPN14 (11732068_a_at) / Fold change /veh CAPN14 (11732068_a_at) / RFU TMCC2 (11721928_a_at) / Fold change /veh TMCC2 (11721928_a_at) / RFU IRGQ (11745062_a_at) / Fold change /veh IRGQ (11745062_a_at) / RFU FAM174B (11720279_a_at) / Fold change /veh FAM174B (11720279_a_at) / RFU TMPRSS4 (11748680_a_at) / Fold change /veh TMPRSS4 (11748680_a_at) / RFU FAM212B (11763350_a_at) / Fold change /veh FAM212B (11763350_a_at) / RFU PLEKHG5 (11743358_a_at) / Fold change /veh PLEKHG5 (11743358_a_at) / RFU ZSCAN30 (11745921_a_at) / Fold change /veh ZSCAN30 (11745921_a_at) / RFU CMKLR1 (11741424_a_at) / Fold change /veh CMKLR1 (11741424_a_at) / RFU LOC101060620 /// MAPK8IP1 (11723275_at) / Fold change /veh LOC101060620 /// MAPK8IP1 (11723275_at) / RFU SPTSSB (11747773_x_at) / Fold change /veh SPTSSB (11747773_x_at) / RFU PRSS12 (11739890_at) / Fold change /veh PRSS12 (11739890_at) / RFU BIN1 (11741810_x_at) / Fold change /veh BIN1 (11741810_x_at) / RFU WNT11 (11732464_a_at) / Fold change /veh WNT11 (11732464_a_at) / RFU C10orf10 (11716521_a_at) / Fold change /veh C10orf10 (11716521_a_at) / RFU C5orf56 (11738089_at) / Fold change /veh C5orf56 (11738089_at) / RFU CYB561 (11721691_x_at) / Fold change /veh CYB561 (11721691_x_at) / RFU ANKRD19P (11752326_a_at) / Fold change /veh ANKRD19P (11752326_a_at) / RFU OR2T12 /// OR2T33 /// OR2T8 (11738714_s_at) / Fold change /veh OR2T12 /// OR2T33 /// OR2T8 (11738714_s_at) / RFU VCAN (11748164_a_at) / Fold change /veh VCAN (11748164_a_at) / RFU JSRP1 (11732532_at) / Fold change /veh JSRP1 (11732532_at) / RFU KRTAP10-11 (11738290_x_at) / Fold change /veh KRTAP10-11 (11738290_x_at) / RFU MYO3A (11730013_a_at) / Fold change /veh MYO3A (11730013_a_at) / RFU EBF3 (11725865_a_at) / Fold change /veh EBF3 (11725865_a_at) / RFU CAMK2N1 (11719241_x_at) / Fold change /veh CAMK2N1 (11719241_x_at) / RFU C5orf56 (11738088_a_at) / Fold change /veh C5orf56 (11738088_a_at) / RFU OLFML3 (11715873_a_at) / Fold change /veh OLFML3 (11715873_a_at) / RFU LOC100653217 /// NTM (11731650_a_at) / Fold change /veh LOC100653217 /// NTM (11731650_a_at) / RFU MAPK11 (11762145_a_at) / Fold change /veh MAPK11 (11762145_a_at) / RFU FIZ1 (11724087_x_at) / Fold change /veh FIZ1 (11724087_x_at) / RFU OASL (11726364_x_at) / Fold change /veh OASL (11726364_x_at) / RFU SOX15 (11748057_x_at) / Fold change /veh SOX15 (11748057_x_at) / RFU CD79A (11719716_a_at) / Fold change /veh CD79A (11719716_a_at) / RFU HIST1H1D (11736915_at) / Fold change /veh HIST1H1D (11736915_at) / RFU CASKIN2 (11723855_a_at) / Fold change /veh CASKIN2 (11723855_a_at) / RFU LOC730098 (11760151_x_at) / Fold change /veh LOC730098 (11760151_x_at) / RFU OR4N2 (11742367_at) / Fold change /veh OR4N2 (11742367_at) / RFU PRRT2 (11749266_a_at) / Fold change /veh PRRT2 (11749266_a_at) / RFU SNX32 (11753110_a_at) / Fold change /veh SNX32 (11753110_a_at) / RFU CDHR5 (11726645_a_at) / Fold change /veh CDHR5 (11726645_a_at) / RFU RCAN1 (11760418_a_at) / Fold change /veh RCAN1 (11760418_a_at) / RFU FAM167A (11723789_a_at) / Fold change /veh FAM167A (11723789_a_at) / RFU FAM26E (11764081_at) / Fold change /veh FAM26E (11764081_at) / RFU ISYNA1 (11749810_s_at) / Fold change /veh ISYNA1 (11749810_s_at) / RFU ACY1 (11761880_at) / Fold change /veh ACY1 (11761880_at) / RFU 11764098_at / Fold change /veh 11764098_at / RFU SAMD14 (11745864_x_at) / Fold change /veh SAMD14 (11745864_x_at) / RFU NPB (11741838_a_at) / Fold change /veh NPB (11741838_a_at) / RFU TMPRSS6 (11731388_a_at) / Fold change /veh TMPRSS6 (11731388_a_at) / RFU KRTAP10-2 (11738614_at) / Fold change /veh KRTAP10-2 (11738614_at) / RFU ARHGAP8 /// PRR5-ARHGAP8 (11727945_x_at) / Fold change /veh ARHGAP8 /// PRR5-ARHGAP8 (11727945_x_at) / RFU KRTAP5-7 /// NADSYN1 (11734609_at) / Fold change /veh KRTAP5-7 /// NADSYN1 (11734609_at) / RFU RASL12 (11751679_a_at) / Fold change /veh RASL12 (11751679_a_at) / RFU CDKN2B (11736163_a_at) / Fold change /veh CDKN2B (11736163_a_at) / RFU PRF1 (11729649_at) / Fold change /veh PRF1 (11729649_at) / RFU, ZNF638 /// ZNF638-IT1 / Fold change vs veh, ZNF638 /// ZNF638-IT1 / RFU, PANK3 / Fold change vs veh, PANK3 / RFU, SH3YL1 / Fold change vs veh, SH3YL1 / RFU, ZEB2 / Fold change vs veh, ZEB2 / RFU, NRIP1 / Fold change vs veh, NRIP1 / RFU, PTTG1IP / Fold change vs veh, PTTG1IP / RFU, CAPN2 / Fold change vs veh, CAPN2 / RFU, MED14 / Fold change vs veh, MED14 / RFU, SNORA58 / Fold change vs veh, SNORA58 / RFU, C1orf63 / Fold change vs veh, C1orf63 / RFU, LRRFIP1 / Fold change vs veh, LRRFIP1 / RFU, NDUFAF7 / Fold change vs veh, NDUFAF7 / RFU, SLC12A2 / Fold change vs veh, SLC12A2 / RFU, IBTK / Fold change vs veh, IBTK / RFU, ESF1 / Fold change vs veh, ESF1 / Fold change vs veh, TMEM50B / RFU, TAOK1 / Fold change vs veh, TAOK1 / RFU, ACBD3 / Fold change vs veh, ACBD3 / RFU, TMA16 / Fold change vs veh, TMA16 / RFU, RWDD3 / Fold change vs veh, RWDD3 / RFU, BCAT1 / Fold change vs veh, BCAT1 / RFU, EDEM3 / Fold change vs veh, EDEM3 / RFU, TMEM33 / Fold change vs veh, TMEM33 / RFU, WDR75 / Fold change vs veh, WDR75 / RFU, AHCTF1 / Fold change vs veh, AHCTF1 / RFU, TFRC / Fold change vs veh, TFRC / RFU, ZDHHC17 / Fold change vs veh, ZDHHC17 / RFU, NOM1 / Fold change vs veh, NOM1 / RFU, ARL8B / Fold change vs veh, ARL8B / RFU, ZBTB11 / Fold change vs veh, ZBTB11 / RFU, TAMM41 / Fold change vs veh, TAMM41 / RFU, KIAA1704 /// LOC100996395 / Fold change vs veh, KIAA1704 /// LOC100996395 / RFU, ING1 / Fold change vs veh, ING1 / RFU, TRMT61B / Fold change vs veh, TRMT61B / RFU, FUBP3 / Fold change vs veh, FUBP3 / RFU, TP53 / Fold change vs veh, TP53 / RFU, TNKS2 / Fold change vs veh, TNKS2 / RFU, ZFP14 / Fold change vs veh, ZFP14 / RFU, ACTR2 / Fold change vs veh, ACTR2 / RFU, PPP3R1 / Fold change vs veh, PPP3R1 / RFU, PIK3R1 / Fold change vs veh, PIK3R1 / RFU, HNRNPA1 / Fold change vs veh, HNRNPA1 / RFU, RNF170 / Fold change vs veh, RNF170 / RFU, ZNF28 / Fold change vs veh, ZNF28 / RFU, RNGTT / Fold change vs veh, RNGTT / RFU, OGT / Fold change vs veh, OGT / RFU, BRD1 / Fold change vs veh, BRD1 / RFU, MARS / Fold change vs veh, MARS / RFU, ZNF655 / Fold change vs veh, ZNF655 / RFU, FAHD1 / Fold change vs veh, FAHD1 / RFU, BDP1 / Fold change vs veh, BDP1 / RFU, LRRCC1 / Fold change vs veh, LRRCC1 / RFU, ARID1A / Fold change vs veh, ARID1A / RFU, ZNF146 / Fold change vs veh, ZNF146 / RFU, ZNF330 / Fold change vs veh, ZNF330 / RFU, GPN3 / Fold change vs veh, GPN3 / RFU, C9orf123 / Fold change vs veh, C9orf123 / RFU, N4BP2L2 / Fold change vs veh, N4BP2L2 / RFU, ARFIP1 / Fold change vs veh, ARFIP1 / RFU, FAM179B / Fold change vs veh, FAM179B / RFU, BCL10 / Fold change vs veh, BCL10 / RFU, UHRF1BP1L / Fold change vs veh, UHRF1BP1L / RFU, BET1 / Fold change vs veh, BET1 / RFU, CNOT2 / Fold change vs veh, CNOT2 / RFU, ZNF268 / Fold change vs veh, ZNF268 / Fold change vs veh, ZNF507 / RFU, DGCR2 / Fold change vs veh, DGCR2 / RFU, WDSUB1 / Fold change vs veh, WDSUB1 / Fold change vs veh, HSP90B1 /// MIR3652 / RFU, ADSS / Fold change vs veh, ADSS / RFU, GK / Fold change vs veh, GK / RFU, ZNF148 / Fold change vs veh, ZNF148 / RFU, TAF9 / Fold change vs veh, TAF9 / RFU, SLC1A5 / Fold change vs veh, SLC1A5 / RFU, SLMO2 / Fold change vs veh, SLMO2 / RFU, ABCC4 / Fold change vs veh, ABCC4 / RFU, LOC101060439 /// RAP1B / Fold change vs veh, LOC101060439 /// RAP1B / RFU, RFX7 / Fold change vs veh, RFX7 / RFU, GTPBP10 / Fold change vs veh, GTPBP10 / RFU, CNEP1R1 / Fold change vs veh, CNEP1R1 / RFU, BIVM-ERCC5 /// ERCC5 / Fold change vs veh, BIVM-ERCC5 /// ERCC5 / RFU, ILF3 / Fold change vs veh, ILF3 / RFU 11762660_at / Fold change /veh 11762660_at / RFU VCAN (11757783_s_at) / Fold change /veh VCAN (11757783_s_at) / RFU DDX43 (11728927_at) / Fold change /veh DDX43 (11728927_at) / RFU KRT8 (11758188_x_at) / Fold change /veh KRT8 (11758188_x_at) / RFU NKD1 (11759106_at) / Fold change /veh NKD1 (11759106_at) / RFU SRD5A1 (11742802_a_at) / Fold change /veh SRD5A1 (11742802_a_at) / RFU TPSAB1 /// TPSB2 (11721975_s_at) / Fold change /veh TPSAB1 /// TPSB2 (11721975_s_at) / RFU GSTM3 (11746129_a_at) / Fold change /veh GSTM3 (11746129_a_at) / RFU IL23R (11737362_x_at) / Fold change /veh IL23R (11737362_x_at) / RFU TMEM51 (11727254_a_at) / Fold change /veh TMEM51 (11727254_a_at) / RFU PIWIL2 (11732686_x_at) / Fold change /veh PIWIL2 (11732686_x_at) / RFU ORM1 (11744905_x_at) / Fold change /veh ORM1 (11744905_x_at) / RFU CCDC152 (11743942_at) / Fold change /veh CCDC152 (11743942_at) / RFU ECM1 (11717891_a_at) / Fold change /veh ECM1 (11717891_a_at) / RFU IL23R (11748794_a_at) / Fold change /veh IL23R (11748794_a_at) / RFU TNFAIP8L3 (11732012_x_at) / Fold change /veh TNFAIP8L3 (11732012_x_at) / RFU MBOAT4 (11741988_at) / Fold change /veh MBOAT4 (11741988_at) / RFU 11764193_at / Fold change /veh 11764193_at / RFU TMEM53 (11763286_at) / Fold change /veh TMEM53 (11763286_at) / RFU MAGEB2 (11727129_at) / Fold change /veh MAGEB2 (11727129_at) / RFU TMEM200A (11744735_a_at) / Fold change /veh TMEM200A (11744735_a_at) / RFU CCDC152 (11751479_a_at) / Fold change /veh CCDC152 (11751479_a_at) / RFU FAM211A (11726209_a_at) / Fold change /veh FAM211A (11726209_a_at) / RFU RGS16 (11746705_a_at) / Fold change /veh RGS16 (11746705_a_at) / RFU VCAN (11755009_s_at) / Fold change /veh VCAN (11755009_s_at) / RFU RHOB (11743442_s_at) / Fold change /veh RHOB (11743442_s_at) / RFU RGS16 (11720943_a_at) / Fold change /veh RGS16 (11720943_a_at) / RFU RGS16 (11720944_at) / Fold change /veh RGS16 (11720944_at) / RFU, VPS4B / Fold change vs veh, VPS4B / RFU, CREB1 / Fold change vs veh, CREB1 / RFU, DNAJC13 / Fold change vs veh, DNAJC13 / RFU, GNAQ / Fold change vs veh, GNAQ / RFU, CDK5R1 / Fold change vs veh, CDK5R1 / RFU, ZRANB3 / Fold change vs veh, ZRANB3 / RFU, CUL4A / Fold change vs veh, CUL4A / RFU, CCNY / Fold change vs veh, CCNY / RFU, UFL1 / Fold change vs veh, UFL1 / RFU, COG3 / Fold change vs veh, COG3 / RFU, DIAPH2 / Fold change vs veh, DIAPH2 / RFU, SKA2 / Fold change vs veh, SKA2 / RFU, AFF3 / Fold change vs veh, AFF3 / RFU, LMF1 / Fold change vs veh, LMF1 / RFU, IPO11 / Fold change vs veh, IPO11 / RFU, DFFB / Fold change vs veh, DFFB / RFU, FOXP1 / Fold change vs veh, FOXP1 / RFU, CARD8 / Fold change vs veh, CARD8 / RFU, STRN3 / Fold change vs veh, STRN3 / RFU, ADK / Fold change vs veh, ADK / RFU, RASSF2 / Fold change vs veh, RASSF2 / RFU, WIPF1 / Fold change vs veh, WIPF1 / RFU, LARP1B / Fold change vs veh, LARP1B / RFU, RASA1 / Fold change vs veh, RASA1 / RFU, RB1 / Fold change vs veh, RB1 / RFU, PPFIA1 / Fold change vs veh, PPFIA1 / RFU, MAT2A / Fold change vs veh, MAT2A / RFU, CCT5 / Fold change vs veh, CCT5 / RFU, WDR92 / Fold change vs veh, WDR92 / RFU, CUX1 / Fold change vs veh, CUX1 / RFU, TTC7A / Fold change vs veh, TTC7A / RFU, TMEM135 / Fold change vs veh, TMEM135 / RFU, DEPTOR / Fold change vs veh, DEPTOR / RFU, CPM / Fold change vs veh, CPM / RFU, DNAJB6 / Fold change vs veh, DNAJB6 / RFU, CACNA2D3 / Fold change vs veh, CACNA2D3 / RFU, DTX4 / Fold change vs veh, DTX4 / RFU, TFCP2 / Fold change vs veh, TFCP2 / RFU, GMCL1 /// GMCL1P1 / Fold change vs veh, GMCL1 /// GMCL1P1 / RFU, AEBP2 / Fold change vs veh, AEBP2 / RFU, SNHG1 /// SNORD22 /// SNORD25 /// SNORD26 /// SNORD27 /// SNORD28 /// SNORD29 /// SNORD31 / Fold change vs veh, SNHG1 /// SNORD22 /// SNORD25 /// SNORD26 /// SNORD27 /// SNORD28 /// SNORD29 /// SNORD31 / Fold change (Aza/veh), C12orf56 (ProbeSet 11735607_a_at) / Fold change (ACY-1035/veh), C12orf56 (ProbeSet 11735607_a_at) / Fold change (Aza/veh), FGFR1OP (ProbeSet 11751329_s_at) / Fold change (ACY-1035/veh), FGFR1OP (ProbeSet 11751329_s_at) / Fold change (Aza/veh), VPS36 (ProbeSet 11739960_a_at) / Fold change (ACY-1035/veh), VPS36 (ProbeSet 11739960_a_at) / RFU SYPL1 (11715823_x_at) / Fold change /veh SYPL1 (11715823_x_at) / RFU IGFBP7 (11715501_s_at) / Fold change /veh IGFBP7 (11715501_s_at) / RFU REEP3 (11722064_at) / Fold change /veh REEP3 (11722064_at) / RFU IGLL1 (11728026_x_at) / Fold change /veh IGLL1 (11728026_x_at): dose or concentration left out as unconfirmed
# Conditions: ProbeSet 11732433_s_at; LIST B
smiles,measurement,value
Nc1ccc(-c2cccs2)cc1NC(=O)c1ccc2c(c1)cc(C1CC1)n2CCN1CCOCC1 [ACY-1035],"RFU, GK",305.66 RFU

# Source: PMC5218480 (PLoS ONE, 2017)
